Assay results published in paper PMC10870750 (ACS Polymers Au, 2023).
Positions of bridges follow the written chain, without caps; N, C: chain ends. Non-standard residues stand in square brackets, D forms with d. Residues, ends and D or L forms follow the SMILES beside them. S5 = C=CCCC[C@](C)(N)C(=O)O

What was measured:
Dynamic light scattering = format: physicochemical; conditions: 200 μM in 10 mM PBS; from lack of reliable DLS data and visibly clear solutions
[1] = test system: human red blood cells (RBCs); conditions: 50 μM; ref our previous study; cited from earlier work

CC[C@H](C)[C@H](NC(=O)[C@H](C)NC(=O)[C@H](CCCCN)NC(=O)[C@H](CO)NC(=O)[C@H](CCC(=O)O)NC(=O)[C@@H]1CCCN1C(C)=O)C(=O)N[C@@H](CCCCN)C(=O)N[C@@]1(C)CCCC=CCCC[C@@](C)(C(=O)N[C@H](C(=O)N[C@@H](CO)C(=O)N[C@@H](CCCCN)C(=O)N[C@@H](CCC(=O)O)C(=O)N[C@@H](CCCNC(=N)N)C(=O)N[C@@H](CO)C(=O)N[C@@H](CCCCN)C(=O)N[C@@H](CCCNC(=N)N)C(=O)N[C@@H](CO)C(=O)N2CCC[C@H]2C(N)=O)C(C)C)NC(=O)[C@H](CCCCN)NC(=O)[C@H](CC(C)C)NC(=O)[C@H](CC(C)C)NC1=O [stapled Ac-P9] (Ac-PESKAIK[S5]LLK[S5]VSKERSKRSP-NH2; staple 8-12)
solubility / aggregation state in solution (Dynamic light scattering): soluble or exists in very small aggregates
hemolysis [1]: does not induce significant hemolysis
